Target: T1, Solute carrier organic anion transporter family member 1A4 (Mus musculus, UniProt Q9EP96)
T1 sequence (Q9EP96 whole entry): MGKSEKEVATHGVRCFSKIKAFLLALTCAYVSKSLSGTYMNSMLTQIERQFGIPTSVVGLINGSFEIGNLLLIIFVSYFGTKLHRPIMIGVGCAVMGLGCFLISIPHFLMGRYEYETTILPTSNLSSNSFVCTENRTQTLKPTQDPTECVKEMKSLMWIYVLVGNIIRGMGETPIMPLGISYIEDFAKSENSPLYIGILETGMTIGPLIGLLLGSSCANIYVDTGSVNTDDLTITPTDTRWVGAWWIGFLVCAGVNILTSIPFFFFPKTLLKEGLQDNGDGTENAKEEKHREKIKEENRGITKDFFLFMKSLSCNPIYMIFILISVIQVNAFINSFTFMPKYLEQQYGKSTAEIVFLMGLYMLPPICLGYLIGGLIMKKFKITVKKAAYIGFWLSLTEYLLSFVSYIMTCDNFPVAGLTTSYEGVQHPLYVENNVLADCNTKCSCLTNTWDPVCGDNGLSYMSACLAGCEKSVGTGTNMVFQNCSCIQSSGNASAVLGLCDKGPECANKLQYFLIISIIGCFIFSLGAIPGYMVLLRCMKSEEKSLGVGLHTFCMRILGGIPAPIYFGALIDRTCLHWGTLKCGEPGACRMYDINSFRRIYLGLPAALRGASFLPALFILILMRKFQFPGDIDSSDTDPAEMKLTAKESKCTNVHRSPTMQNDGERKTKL
Assay: TP_TRANSPORTER: Northern blot in vivo, liver of PXR+/+ mouse
Type: functional, organism-based

| SMILES | Activity |
| --- | --- |
| CC(=O)[C@H]1[C@H](C#N)C[C@H]2[C@@H]3CC=C4C[C@@H](O)CC[C@]4(C)[C@H]3CC[C@@]21C [PREGNENOLONE CARBONITRILE] | inducer [+] |
| C[C@H](CCC(=O)O)[C@H]1CC[C@H]2[C@@H]3CC[C@@H]4C[C@H](O)CC[C@]4(C)[C@H]3CC[C@]12C [LITHOCHOLIC ACID] | inducer [+] |

— ChEMBL document CHEMBL2074374, “The nuclear receptor PXR is a lithocholic acid sensor that protects against liver toxicity” (Proc Natl Acad Sci U S A, 2001)
